The source of these data is patent publication US7495024B2, “Phenylalkyl N-hydroxyureas for combating atherosclerotic plaque” (VIA Pharmaceuticals, Inc., priority 2006, dated 2009).

What all share (format): in vivo
The test system of assay [1] is ApoE-deficient mice. Put plainly: Gross pathological evaluation of aortas with developed atherosclerotic plaque (Example 2, FIG. 2). The following applies: 28-week old ApoE-deficient mice, 28 days. The source says:
In Examples 1 and 2 knockout mice deficient in producing the protein Apolipoprotein E [apoE] were used. ApoE-deficient mice are known to spontaneously develop atherosclerotic plaque at 12-16 weeks, which process is accelerated by feeding the mice a high fat diet. Because the atherosclerotic lesions found in these mice are histologically similar to those found in humans, the ApoE-deficient mice are used as a model for assessing the effects of a drug on atherosclerotic plaque in humans.
Four week old female ApoE-deficient knockout mice were fed a high-fat diet set forth in Example 1 for a period of 24 weeks to allow atherosclerotic plaque to build-up. […]
The entire treatment was carried out by administering the vehicle or the dosage to the mice once a day for 28 days. […] At terminal sacrifice, aortas were harvested from 16 mice in each of the treatment groups and grossly evaluated, selected tissue from the remaining 4 mice per group were evaluated grossly and fixed and processed for histopathological analysis and quantitative determination of plaque burden. […]

The subject of assay [2] is ApoE-deficient mice. Put plainly: Gross qualitative atherosclerotic lesion analysis of aortas, prevention of plaque formation (Example 1). The following applies: 12-week old ApoE-deficient mice, 28 days. The source says: In Examples 1 and 2 knockout mice deficient in producing the protein Apolipoprotein E [apoE] were used. ApoE-deficient mice are known to spontaneously develop atherosclerotic plaque at 12-16 weeks, which process is accelerated by feeding the mice a high fat diet. Because the atherosclerotic lesions found in these mice are histologically similar to those found in humans, the ApoE-deficient mice are used as a model for assessing the effects of a drug on atherosclerotic plaque in humans. This example was carried out on ApoE-deficient knockout mice who were before their normal development of atherosclerotic plaque which occurs in about 12 weeks to determine the effect of compound X i.e. the compound: (N-[3-[5-[(4-fluorophenyl)methyl]-2-thienyl]-1-methyl-2-propynyl]-N-hydroxyurea) on the prevention of plaque formation. Four week old female ApoE knockout mice were fed a high fat diet (21% anhydrous milk fat and 0.15% cholesterol) for a period of eight weeks. […] The results which are given in FIG. 1 were analyzed by one-way analysis of variance (ANOVA) and Student's unpaired t-test comparing each treatment arm to the appropriate control arm.

For assay [3], the system named is ApoE-deficient mice. Put plainly: Histopathological and quantitative assessment of plaque/lesion area in aortic root and aorta (Example 2, FIG. 3). The following applies: 28-week old ApoE-deficient mice, 28 days. Here is the method: Four week old female ApoE-deficient knockout mice were fed a high-fat diet set forth in Example 1 for a period of 24 weeks to allow atherosclerotic plaque to build-up. The 28 week old ApoE-deficient mice were then randomized to receive vehicle (0.9% sterile saline administered at 5 mL/kg or compound X administered at two different doses, 10 mg/kg and 50 mg/kg, each in a volume of 5 mL/kg (from concentrations of […] respectively) daily for 28 consecutive days. Saline vehicle and compound X were all prepared fresh daily and administered orally with a 22G gavage syringe. Doses were adjusted based on most recently obtained body weight. The following two treatment groups were tested and compared: 1) the first treatment group consisted of 20 female mice treated only with saline and 20 female mice treated with 10 mg/kg of compound X and 2) the second treatment group consisted of 20 female mice treated with vehicle and 20 female mice treated with 50 mg/kg of compound X.
The entire treatment was carried out by administering the vehicle or the dosage to the mice once a day for 28 days. […] At terminal sacrifice, aortas were harvested from 16 mice in each of the treatment groups and grossly evaluated, selected tissue from the remaining 4 mice per group were evaluated grossly and fixed and processed for histopathological analysis and quantitative determination of plaque burden.
For quantitative assessment of the atherosclerotic process, in FIG. 2 and FIG. 3, the aortic tree of mice was prepared and described by Tabibiazar, Wagner, et al. Physiol Genomics 22(2): 213-226 (2005). The amount of plaque/lesion area in the aortic root, as well as the entire aorta, was measured. Percent lesion areas were calculated as a total lesion area divided by the total surface area. […]
For the quantitative assessment of the atherosclerotic process in FIG. 3, the amount of plaque/lesion area in the aortic root as well as the entire aorta was measured. Percent lesion area was calculated at total lesion area divided by total surface area.

On to `CC(C#Cc1ccc(Cc2ccc(F)cc2)s1)N(O)C(N)=O` (stereo not shown) [compound X, N-[3-[5-[(4-fluorophenyl)methyl]-2-thienyl]-1-methyl-2-propynyl]-N-hydroxyurea], for which the “atherosclerotic lesions in the proximal aorta, aortic arch, thoracic and abdominal aorta (gross pathological score)” value in the assay on ApoE-deficient mice [1] (10 mg/kg/day or 50 mg/kg/day oral, vs vehicle) is recorded as “substantial reduction of atherosclerotic lesions”. Further, in the assay with ApoE-deficient mice [1] (10 and 50 mg/kg/day oral), the “plaque burden in the proximal aorta and aortic arch compared to vehicle” value is “statistically significant reductions in plaque burden”. In the assay on ApoE-deficient mice [2] (high fat diet, 1, 10 and 50 mg/kg/day oral once daily, vs vehicle), the “extent of plaque in the proximal aorta” value is reported as “reductions in the extent of plaque”. Also, the “reduction of plaque formation in the proximal aorta compared to vehicle” value with ApoE-deficient mice [2] (50 mg/kg/day oral, p<0.03) was approximately 40%. Further, the “atherosclerotic plaque formation in the aortic root (histopathological evaluation)” value in the assay on ApoE-deficient mice [3] (10 mg/kg (p<0.07) and 50 mg/kg (p<0.001) oral, vs vehicle) is listed as “dose dependent reduction of atherosclerotic plaque formation”. Besides, in the assay with ApoE-deficient mice [3] (50 mg/kg oral, statistically significant), the “reduction in mean lesion area compared to vehicle” value is recorded as “approximately 45%”. Besides, in the assay on ApoE-deficient mice [3] (10 and 50 mg/kg/day oral, vs vehicle, dose dependent), the “percent plaque lesion area in the aortas” value is listed as “marked reduction of percent plaque lesion area”.
